Laboratory results: the NIST ThermoML archive (doi:10.1007/s10765-010-0737-5)

Experiment: xn = mol fraction of the nth substance listed
Conditions: Liquid; for viscosity: 101 kPa, Capillary tube (Ostwald / Ubbelohde) method; for mass density: 101.3 kPa

CC(C)CCl [1-chloro-2-methylpropane] + CC(C)OC(C)C
Conditions | mass density [kg/m3] | viscosity [mPa·s]
283.15 K, x1 = 0.0549 | 740.509 | 0.3695
283.15 K, x1 = 0.091 | 745.071 | 0.3728
283.15 K, x1 = 0.1977 | 758.96 | 0.3837
283.15 K, x1 = 0.2934 | 772.077 | 0.3947
283.15 K, x1 = 0.3911 | 785.941 | 0.4069
283.15 K, x1 = 0.5137 | 804.21 | 0.424
283.15 K, x1 = 0.6034 | 818.258 | 0.438
283.15 K, x1 = 0.6769 | 830.206 | 0.4502
283.15 K, x1 = 0.8059 | 852.473 | 0.4739
283.15 K, x1 = 0.9111 | 871.773 | 0.4955
283.15 K, x1 = 0.9646 | 881.981 | 0.5074
283.15 K, x1 = 1 | 888.845 | 0.5155
288.15 K, x1 = 0.0549 | 735.346 | 0.3532
288.15 K, x1 = 0.091 | 739.888 | 0.3565
288.15 K, x1 = 0.1977 | 753.737 | 0.3666
288.15 K, x1 = 0.2934 | 766.807 | 0.3765
288.15 K, x1 = 0.3911 | 780.617 | 0.3876
288.15 K, x1 = 0.5137 | 798.831 | 0.403
288.15 K, x1 = 0.6034 | 812.821 | 0.4152
288.15 K, x1 = 0.6769 | 824.734 | 0.4261
288.15 K, x1 = 0.8059 | 846.936 | 0.447
288.15 K, x1 = 0.9111 | 866.179 | 0.4658
288.15 K, x1 = 0.9646 | 876.368 | 0.4761
288.15 K, x1 = 1 | 883.211 | 0.4833
293.15 K, x1 = 0.0549 | 730.142 | 0.3383
293.15 K, x1 = 0.091 | 734.678 | 0.3412
293.15 K, x1 = 0.1977 | 748.467 | 0.3504
293.15 K, x1 = 0.2934 | 761.481 | 0.3595
293.15 K, x1 = 0.3911 | 775.245 | 0.3694
293.15 K, x1 = 0.5137 | 793.406 | 0.3831
293.15 K, x1 = 0.6034 | 807.35 | 0.3941
293.15 K, x1 = 0.6769 | 819.228 | 0.4038
293.15 K, x1 = 0.8059 | 841.356 | 0.4222
293.15 K, x1 = 0.9111 | 860.549 | 0.4386
293.15 K, x1 = 0.9646 | 870.717 | 0.4478
293.15 K, x1 = 1 | 877.539 | 0.454
298.15 K, x1 = 0.0549 | 724.887 | 0.3219
298.15 K, x1 = 0.091 | 729.395 | 0.3247
298.15 K, x1 = 0.1977 | 743.114 | 0.3337
298.15 K, x1 = 0.2934 | 756.06 | 0.3423
298.15 K, x1 = 0.3911 | 769.763 | 0.3515
298.15 K, x1 = 0.5137 | 787.825 | 0.3644
298.15 K, x1 = 0.6034 | 801.699 | 0.3747
298.15 K, x1 = 0.6769 | 813.519 | 0.3834
298.15 K, x1 = 0.8059 | 835.53 | 0.4003
298.15 K, x1 = 0.9111 | 854.603 | 0.4156
298.15 K, x1 = 0.9646 | 864.749 | 0.4238
298.15 K, x1 = 1 | 871.533 | 0.4296
303.15 K, x1 = 0.0549 | 719.603 | 0.3043
303.15 K, x1 = 0.091 | 724.11 | 0.3069
303.15 K, x1 = 0.1977 | 737.798 | 0.316
303.15 K, x1 = 0.2934 | 750.738 | 0.3246
303.15 K, x1 = 0.3911 | 764.421 | 0.3341
303.15 K, x1 = 0.5137 | 782.446 | 0.3469
303.15 K, x1 = 0.6034 | 796.305 | 0.357
303.15 K, x1 = 0.6769 | 808.11 | 0.3659
303.15 K, x1 = 0.8059 | 830.111 | 0.3826
303.15 K, x1 = 0.9111 | 849.196 | 0.3975
303.15 K, x1 = 0.9646 | 859.307 | 0.4058
303.15 K, x1 = 1 | 866.096 | 0.4112
308.15 K, x1 = 0.0549 | 714.28 | 0.2896
308.15 K, x1 = 0.091 | 718.759 | 0.2926
308.15 K, x1 = 0.1977 | 732.397 | 0.3012
308.15 K, x1 = 0.2934 | 745.3 | 0.3094
308.15 K, x1 = 0.3911 | 758.935 | 0.3184
308.15 K, x1 = 0.5137 | 776.901 | 0.3308
308.15 K, x1 = 0.6034 | 790.719 | 0.3404
308.15 K, x1 = 0.6769 | 802.492 | 0.3489
308.15 K, x1 = 0.8059 | 824.422 | 0.3647
308.15 K, x1 = 0.9111 | 843.468 | 0.3791
308.15 K, x1 = 0.9646 | 853.542 | 0.3867
308.15 K, x1 = 1 | 860.319 | 0.3921
313.15 K, x1 = 0.0549 | 708.887 | 0.2761
313.15 K, x1 = 0.091 | 713.334 | 0.2788
313.15 K, x1 = 0.1977 | 726.882 | 0.287
313.15 K, x1 = 0.2934 | 739.693 | 0.2948
313.15 K, x1 = 0.3911 | 753.227 | 0.3033
313.15 K, x1 = 0.5137 | 771.077 | 0.315
313.15 K, x1 = 0.6034 | 784.802 | 0.324
313.15 K, x1 = 0.6769 | 796.487 | 0.3322
313.15 K, x1 = 0.8059 | 818.264 | 0.3472
313.15 K, x1 = 0.9111 | 837.168 | 0.3607
313.15 K, x1 = 0.9646 | 847.176 | 0.3677
313.15 K, x1 = 1 | 853.902 | 0.3726
